From ChEMBL document CHEMBL1201862, “PubChem BioAssay data set” (2004)
Values belong to the compound of their own block, whether it stands above or below them. The source made the active and inactive calls. Cut-off read from the data, not from the text of the source, for most assays here: actives have a measured IC50 and inactives only a lower limit.

Assays:
[1] = target: T1, Mannose-6-phosphate isomerase (Homo sapiens, UniProt P34949); test: inhibitors of human PMI, primary screen, biochemical, fluorescence intensity, coupled assay (AID 1209)
T1 sequence (P34949 whole entry): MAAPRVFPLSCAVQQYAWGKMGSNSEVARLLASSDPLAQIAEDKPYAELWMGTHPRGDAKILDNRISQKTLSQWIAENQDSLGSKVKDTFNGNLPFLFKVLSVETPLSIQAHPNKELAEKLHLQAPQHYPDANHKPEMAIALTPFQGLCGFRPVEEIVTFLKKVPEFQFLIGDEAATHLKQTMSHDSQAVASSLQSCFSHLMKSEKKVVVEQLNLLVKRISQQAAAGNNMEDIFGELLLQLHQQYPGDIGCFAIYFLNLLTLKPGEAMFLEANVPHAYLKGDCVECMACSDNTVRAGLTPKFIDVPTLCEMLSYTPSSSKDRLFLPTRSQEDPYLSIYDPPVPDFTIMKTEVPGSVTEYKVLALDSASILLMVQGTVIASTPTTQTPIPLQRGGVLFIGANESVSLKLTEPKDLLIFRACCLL

[2] = target: T1, Mannose-6-phosphate isomerase; test: PMI enzyme inhibitors, confirmation, biochemical, fluorescence intensity (AID 1535)
Phosphomannomutase 2 = target: T2, Phosphomannomutase 2 (Homo sapiens, UniProt O15305); test: Counter screen SAR assay for PMM2 inhibitors via a fluorescence intensity assay. [Related pubchem assays (depositor defined):AID1545, AID1574]
T2 sequence (O15305 whole entry): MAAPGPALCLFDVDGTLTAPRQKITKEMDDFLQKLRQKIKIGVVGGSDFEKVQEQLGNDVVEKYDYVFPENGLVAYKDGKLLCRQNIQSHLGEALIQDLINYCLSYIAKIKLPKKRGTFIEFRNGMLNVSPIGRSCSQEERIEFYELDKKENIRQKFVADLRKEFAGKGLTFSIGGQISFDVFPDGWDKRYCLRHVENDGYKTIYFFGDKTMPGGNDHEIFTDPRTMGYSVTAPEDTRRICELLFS

[3] = target: Intestinal-type alkaline phosphatase (Mus musculus, UniProt P24822); test: PubChem AID 488785; assay type: functional
Chain of Intestinal-type alkaline phosphatase (Mus musculus, UniProt P24822) (P24822 whole entry): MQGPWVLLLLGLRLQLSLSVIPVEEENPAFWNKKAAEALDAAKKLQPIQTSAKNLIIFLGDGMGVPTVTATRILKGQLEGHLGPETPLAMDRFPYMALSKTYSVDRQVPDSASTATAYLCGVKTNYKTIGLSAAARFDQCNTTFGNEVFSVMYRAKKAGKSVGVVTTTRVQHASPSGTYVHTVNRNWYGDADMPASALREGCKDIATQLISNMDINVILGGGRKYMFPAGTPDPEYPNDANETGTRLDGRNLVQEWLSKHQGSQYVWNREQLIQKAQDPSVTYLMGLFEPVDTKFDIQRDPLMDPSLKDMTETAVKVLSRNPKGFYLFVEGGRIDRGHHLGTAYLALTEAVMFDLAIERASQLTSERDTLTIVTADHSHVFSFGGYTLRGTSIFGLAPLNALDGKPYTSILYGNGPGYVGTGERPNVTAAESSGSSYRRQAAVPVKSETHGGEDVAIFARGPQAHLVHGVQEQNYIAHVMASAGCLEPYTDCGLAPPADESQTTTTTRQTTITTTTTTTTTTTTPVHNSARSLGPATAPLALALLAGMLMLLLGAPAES

[4] = target: T3, Alkaline phosphatase, tissue-nonspecific isozyme (Homo sapiens, UniProt P05186); test: TNAP enzyme inhibition by screening hits, dose response, selectivity assay for mouse IAP inhibitor project, biochemical, human TNAP, uHTS hits (AID 488906); assay type: functional
T3 sequence (P05186 whole entry): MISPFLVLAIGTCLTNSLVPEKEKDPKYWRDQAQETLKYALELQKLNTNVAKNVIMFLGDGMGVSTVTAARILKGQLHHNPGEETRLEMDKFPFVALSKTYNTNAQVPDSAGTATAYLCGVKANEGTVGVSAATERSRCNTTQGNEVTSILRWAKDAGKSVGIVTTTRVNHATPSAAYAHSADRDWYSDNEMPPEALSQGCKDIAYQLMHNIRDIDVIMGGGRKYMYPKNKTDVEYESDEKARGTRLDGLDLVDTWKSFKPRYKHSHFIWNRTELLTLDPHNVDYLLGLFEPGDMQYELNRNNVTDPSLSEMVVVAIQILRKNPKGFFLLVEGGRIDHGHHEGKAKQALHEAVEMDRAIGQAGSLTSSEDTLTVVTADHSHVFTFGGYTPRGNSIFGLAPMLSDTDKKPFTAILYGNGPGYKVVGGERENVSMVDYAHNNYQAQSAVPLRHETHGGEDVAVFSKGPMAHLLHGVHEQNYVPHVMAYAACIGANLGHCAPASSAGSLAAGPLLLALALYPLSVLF

[5] = target: Intestinal-type alkaline phosphatase (Homo sapiens, UniProt P09923); test: inhibition of human intestinal alkaline phosphatase – biochemical, dose response (AID 488876); assay type: functional
Chain of Intestinal-type alkaline phosphatase (Homo sapiens, UniProt P09923) (P09923 whole entry): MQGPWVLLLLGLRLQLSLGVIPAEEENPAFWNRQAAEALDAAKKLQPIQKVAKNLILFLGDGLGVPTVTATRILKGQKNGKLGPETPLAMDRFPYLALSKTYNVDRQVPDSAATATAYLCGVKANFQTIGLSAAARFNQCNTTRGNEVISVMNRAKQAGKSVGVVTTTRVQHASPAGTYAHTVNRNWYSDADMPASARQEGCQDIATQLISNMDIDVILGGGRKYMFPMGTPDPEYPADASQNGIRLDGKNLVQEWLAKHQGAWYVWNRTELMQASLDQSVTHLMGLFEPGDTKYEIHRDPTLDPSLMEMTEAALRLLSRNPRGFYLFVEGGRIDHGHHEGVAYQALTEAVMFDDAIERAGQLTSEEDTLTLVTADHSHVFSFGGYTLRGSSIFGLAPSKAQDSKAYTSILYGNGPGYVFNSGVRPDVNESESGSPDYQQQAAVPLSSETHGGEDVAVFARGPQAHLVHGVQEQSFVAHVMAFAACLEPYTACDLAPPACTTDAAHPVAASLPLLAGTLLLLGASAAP

Escherichia coli = test: microbe, parasite or virus in culture
HEK293 [6] = test: NOD1 signaling inhibitors, primary screen, cell-based, luminescence, uHTS (AID 1578); assay type: functional; conditions: Homo sapiens
HEK293 [7] = test: cells; assay type: functional, cell-based; conditions: Homo sapiens
HEK293 [8] = test: cells; assay type: functional, cell-based; conditions: Homo sapiens; remark: listed apart in the source
[9] = target: Nucleotide-binding oligomerization domain-containing protein 2 (Homo sapiens, UniProt Q9HC29); test: NOD2 signaling inhibitors, cell-based, luminescence, uHTS, HEK293 (AID 1566); assay type: functional
Chain of Nucleotide-binding oligomerization domain-containing protein 2 (Q9HC29 whole entry, the tested form may be a part): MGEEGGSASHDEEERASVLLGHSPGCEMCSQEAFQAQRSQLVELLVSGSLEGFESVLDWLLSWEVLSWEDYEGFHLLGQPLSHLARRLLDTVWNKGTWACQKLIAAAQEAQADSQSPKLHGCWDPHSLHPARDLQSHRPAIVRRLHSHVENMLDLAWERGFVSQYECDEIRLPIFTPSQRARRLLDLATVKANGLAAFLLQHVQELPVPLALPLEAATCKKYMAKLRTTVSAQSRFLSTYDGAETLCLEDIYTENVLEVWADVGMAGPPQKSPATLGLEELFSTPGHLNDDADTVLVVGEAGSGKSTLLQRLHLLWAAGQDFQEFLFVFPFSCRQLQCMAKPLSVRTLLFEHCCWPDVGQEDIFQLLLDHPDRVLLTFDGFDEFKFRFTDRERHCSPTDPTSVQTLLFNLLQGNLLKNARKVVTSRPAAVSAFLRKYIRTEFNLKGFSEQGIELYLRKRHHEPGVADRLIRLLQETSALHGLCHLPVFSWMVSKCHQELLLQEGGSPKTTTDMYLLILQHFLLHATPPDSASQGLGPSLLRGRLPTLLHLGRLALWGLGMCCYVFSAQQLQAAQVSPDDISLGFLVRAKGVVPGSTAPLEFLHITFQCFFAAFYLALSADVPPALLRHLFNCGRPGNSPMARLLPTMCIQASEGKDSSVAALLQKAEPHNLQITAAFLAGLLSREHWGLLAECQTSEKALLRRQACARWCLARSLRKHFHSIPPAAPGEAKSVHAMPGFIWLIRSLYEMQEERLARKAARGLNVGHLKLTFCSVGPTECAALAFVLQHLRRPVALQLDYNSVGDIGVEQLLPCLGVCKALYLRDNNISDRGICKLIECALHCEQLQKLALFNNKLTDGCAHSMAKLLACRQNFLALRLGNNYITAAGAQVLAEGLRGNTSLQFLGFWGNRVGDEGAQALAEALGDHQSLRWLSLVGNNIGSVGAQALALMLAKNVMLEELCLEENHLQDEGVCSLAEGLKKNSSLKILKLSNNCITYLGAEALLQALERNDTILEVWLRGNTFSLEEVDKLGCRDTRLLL

HEK293 [10] = test: NOD2 signaling inhibitors in MDP-stimulated cells, cell-based, uHTS, luminescence (AID 2001); assay type: functional; conditions: Homo sapiens
HEK293 [11] = test: cells; assay type: functional, cell-based; conditions: Homo sapiens; remark: listed apart in the source
Tumor necrosis factor = Tumor necrosis factor (Homo sapiens, UniProt P01375); test: TNFa-triggered NF-kB activation inhibitors, SAR follow-up, cell-based, revised (AID 2337); assay type: functional
Chain of Tumor necrosis factor (P01375 whole entry, the tested form may be a part): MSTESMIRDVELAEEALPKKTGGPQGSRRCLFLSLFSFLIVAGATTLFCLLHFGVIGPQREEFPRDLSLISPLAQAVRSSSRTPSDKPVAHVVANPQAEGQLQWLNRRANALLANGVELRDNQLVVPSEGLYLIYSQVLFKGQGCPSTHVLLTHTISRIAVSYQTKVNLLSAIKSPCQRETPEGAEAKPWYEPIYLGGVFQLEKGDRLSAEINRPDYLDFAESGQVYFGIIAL

[12] = target: T4, Nucleotide-binding oligomerization domain-containing protein 1 (Homo sapiens, UniProt Q9Y239); test: NOD1 signaling inhibitors, SAR follow-up, revised (AID 2333); assay type: functional
T4 sequence (Q9Y239 whole entry): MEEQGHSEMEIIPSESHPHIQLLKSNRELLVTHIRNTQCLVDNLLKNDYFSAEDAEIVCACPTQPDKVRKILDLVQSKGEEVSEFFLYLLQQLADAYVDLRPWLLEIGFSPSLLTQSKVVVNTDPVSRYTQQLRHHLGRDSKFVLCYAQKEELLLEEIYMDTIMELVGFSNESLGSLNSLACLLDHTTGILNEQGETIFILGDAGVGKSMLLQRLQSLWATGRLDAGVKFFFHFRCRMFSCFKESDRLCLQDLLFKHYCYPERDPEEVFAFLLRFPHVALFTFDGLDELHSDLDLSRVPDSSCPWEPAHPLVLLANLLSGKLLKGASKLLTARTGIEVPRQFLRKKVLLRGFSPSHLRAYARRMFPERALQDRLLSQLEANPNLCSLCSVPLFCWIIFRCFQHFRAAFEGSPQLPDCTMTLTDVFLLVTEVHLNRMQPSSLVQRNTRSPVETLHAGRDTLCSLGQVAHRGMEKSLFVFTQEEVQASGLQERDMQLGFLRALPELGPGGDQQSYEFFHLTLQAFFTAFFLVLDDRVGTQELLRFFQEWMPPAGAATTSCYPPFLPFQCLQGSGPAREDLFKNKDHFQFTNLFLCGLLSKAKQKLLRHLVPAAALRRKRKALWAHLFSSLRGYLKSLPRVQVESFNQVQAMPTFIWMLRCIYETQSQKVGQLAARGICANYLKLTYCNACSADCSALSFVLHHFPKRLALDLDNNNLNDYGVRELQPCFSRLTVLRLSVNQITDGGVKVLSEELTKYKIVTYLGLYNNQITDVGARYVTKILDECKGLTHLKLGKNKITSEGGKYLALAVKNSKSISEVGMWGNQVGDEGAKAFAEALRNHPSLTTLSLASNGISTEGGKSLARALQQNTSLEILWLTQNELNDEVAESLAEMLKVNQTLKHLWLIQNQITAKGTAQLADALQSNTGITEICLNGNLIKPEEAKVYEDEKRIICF

HEK293 [13] = test: cells; conditions: Homo sapiens
[14] = target: Dual specificity protein kinase CLK1 (Homo sapiens, UniProt P49759); test: CLK1 kinase inhibitors, off-target check, dose response, selectivity assay for Dyrk1A inhibitor project, biochemical, cherry-picked samples (AID 588811)
Chain of Dual specificity protein kinase CLK1 (P49759 whole entry): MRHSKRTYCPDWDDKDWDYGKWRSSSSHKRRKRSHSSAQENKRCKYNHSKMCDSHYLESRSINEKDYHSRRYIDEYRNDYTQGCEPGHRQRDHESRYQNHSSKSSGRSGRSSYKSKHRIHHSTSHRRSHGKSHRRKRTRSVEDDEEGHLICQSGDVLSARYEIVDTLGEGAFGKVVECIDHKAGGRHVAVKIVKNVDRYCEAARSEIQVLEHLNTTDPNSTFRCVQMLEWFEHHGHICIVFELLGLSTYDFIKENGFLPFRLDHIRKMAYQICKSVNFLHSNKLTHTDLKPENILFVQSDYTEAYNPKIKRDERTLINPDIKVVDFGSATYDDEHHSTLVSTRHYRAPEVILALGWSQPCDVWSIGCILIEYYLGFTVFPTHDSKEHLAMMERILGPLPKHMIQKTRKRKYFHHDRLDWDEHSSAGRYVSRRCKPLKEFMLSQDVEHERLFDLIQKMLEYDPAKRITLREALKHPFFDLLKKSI

HEK293 [15] = test: cells; assay type: functional, cell-based; conditions: Homo sapiens; remark: listed apart in the source
[16] = target: T5, Nuclear receptor subfamily 0 group B member 1 (Homo sapiens, UniProt P51843); test: Luminescence-based cell-based high throughput dose response assay for inhibitors of the orphan nuclear receptor subfamily 0, group B, member 1 (DAX1; NR0B1). [Related pubchem assays (depositor defined):AID504766, AID504790]; assay type: functional
T5 sequence (P51843 whole entry): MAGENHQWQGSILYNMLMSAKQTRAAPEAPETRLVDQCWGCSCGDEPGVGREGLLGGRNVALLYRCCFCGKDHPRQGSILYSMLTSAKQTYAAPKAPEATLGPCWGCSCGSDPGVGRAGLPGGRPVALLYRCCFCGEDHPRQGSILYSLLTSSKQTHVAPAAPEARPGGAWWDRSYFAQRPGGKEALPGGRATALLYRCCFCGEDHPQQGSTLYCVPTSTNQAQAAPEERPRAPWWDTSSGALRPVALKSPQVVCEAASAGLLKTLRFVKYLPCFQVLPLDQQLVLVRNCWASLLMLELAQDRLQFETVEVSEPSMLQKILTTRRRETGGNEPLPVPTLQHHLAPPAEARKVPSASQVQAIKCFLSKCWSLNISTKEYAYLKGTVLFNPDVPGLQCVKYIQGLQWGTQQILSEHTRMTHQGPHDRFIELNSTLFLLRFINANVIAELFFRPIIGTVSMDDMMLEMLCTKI

IC50 [1]: 12.7 µM (active) | IC50 [2]: > 50 µM (inactive) | IC50 (Phosphomannomutase 2): > 100 µM (inactive) | IC50 [3]: 373 nM (active) | IC50 [4]: 8.85 µM (active) | IC50 [5]: 7.33 µM (active)
Compound: O=C(CSc1nc[nH]n1)CSc1nc[nH]n1

Compound: Cc1ccc(C(=O)N2CCCC(CCC(=O)NCc3ccc(F)c(F)c3)C2)cn1 (stereo unspecified)
AC50 (Escherichia coli): 33.1 µM (active)

Compound: COc1ccc(CN(C)S(=O)(=O)c2nnc(NC(=O)c3cccc(F)c3)s2)cc1
EC50 (HEK293 [6]): 1.8 µM (active) | IC50 (HEK293 [7]): 17.1 µM (active) | IC50 (HEK293 [8]): > 20 µM (inactive) | EC50 [9]: 12.7 µM (active) | IC50 (HEK293 [10]): 12.3 µM (inactive) | IC50 (HEK293 [11]): > 20 µM (inactive) | IC50 (Tumor necrosis factor): 8.03 µM (active) | IC50 [12]: 6.74 µM (active) | IC50 (HEK293 [13]): > 20 µM (inactive)

Compound: Cc1oc(-c2ccccc2Cl)nc1CSc1nc(O)c2c(n1)CCCC2
EC50 (HEK293 [6]): 8.45 µM (active) | IC50 (HEK293 [7]): 19.5 µM (active) | IC50 (HEK293 [8]): > 20 µM (inactive) | IC50 (HEK293 [10]): 7.49 µM (active) | IC50 (HEK293 [11]): > 20 µM (inactive) | IC50 (HEK293 [13]): > 20 µM (inactive)

AC50 [14]: 9.94 nM (active)
Compound: Cc1ccsc1CNc1ncnc2ccc(-c3ccc4c(c3)OCO4)cc12

Compound: CC1=C(C(=O)OCC2CCCO2)C(c2coc3ccc(Cl)cc3c2=O)C2=C(O)CCCC2=N1 (stereo unspecified)
IC50 (HEK293 [15]): > 67.5 µM (inactive) | IC50 [16]: > 67.5 µM (inactive)

Compound: C=CCC[C@H](Cc1ccc(F)cc1)C(=O)OC[C@@H](C)NC(=O)[C@H](CC=C)CC(=O)NCCO
AC50 (Escherichia coli): > 150 µM (inactive)
